Experimental findings from patent US20210139517A1, “BICYCLIC HETEROARYL COMPOUNDS AND USES THEREOF” (Revolution Medicines, Inc., priority 2019, published 2021) are described below.

Test [1] has as its target T1, SOS1 nucleotide exchange of wild-type KRAS (SOS1 catalytic domain residues 564-1049; KRAS residue 1-169) (Homo sapiens, UniProt Q07889).
T1 sequence (Q07889 564-1049): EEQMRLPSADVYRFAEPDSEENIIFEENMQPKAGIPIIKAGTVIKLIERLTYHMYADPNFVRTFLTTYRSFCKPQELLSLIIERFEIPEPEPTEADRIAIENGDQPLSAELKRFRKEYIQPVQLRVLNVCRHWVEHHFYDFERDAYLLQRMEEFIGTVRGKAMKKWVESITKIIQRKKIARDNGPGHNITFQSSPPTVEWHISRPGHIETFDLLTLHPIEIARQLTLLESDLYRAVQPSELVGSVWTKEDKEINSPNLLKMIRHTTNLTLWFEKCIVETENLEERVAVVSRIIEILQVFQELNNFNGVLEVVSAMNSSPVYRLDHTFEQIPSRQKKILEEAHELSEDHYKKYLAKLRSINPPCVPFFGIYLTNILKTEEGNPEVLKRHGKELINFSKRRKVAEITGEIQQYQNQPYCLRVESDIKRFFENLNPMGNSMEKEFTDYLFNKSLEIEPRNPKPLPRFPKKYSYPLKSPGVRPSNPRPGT
Description: Inhibition of SOS1 nucleotide exchange activity of KRAS (TR-FRET). It is filed as biochemical.

Test [2] addresses T2, SOS1 catalytic domain (residues 564-1049) (Homo sapiens, UniProt Q07889).
T2 sequence (Q07889 564-1049): T1 sequence (Q07889 564-1049)
As to the kind of experiment: SOS1 SPR binding affinity assay (Biacore 8K).

Where [3] appears, read: SOS1 nucleotide exchange of wild-type KRAS, three replicates, four-parameter logistic fit, read-out: TR-FRET IC50.
The mark [4] stands for this setting: avi-tagged SOS1 catalytic domain immobilized on streptavidin chip, equilibrium 1:1 binding fit, read-out: SOS1 SPR Equilibrium Kd.

Molecules are shown by their SMILES. Like-named read-outs stand apart in the source and are kept apart here.

In general, IC50 refers to the concentration that inhibits the measured activity by half. Usually Kd stands for a measure of binding affinity in units of concentration. For `Cc1nc(N[C@H](C)c2cccc(C(F)(F)CO)c2)c2cc(C3=CCNCC3)c(=O)n(C)c2n1` [Example 4, (R)-4-((1-(3-(1,1-difluoro-2-hydroxyethyl)phenyl)ethyl)amino)-2,8-dimethyl-6-(1,2,3,6-tetrahydropyridin-4-yl)pyrido[2,3-d]pyrimidin-7(8H)-one], in test [1], half-maximal inhibition (IC50) required 10.8 nM. In test [2], the Kd was determined as 7.97 nM.

With `Cc1nc(N[C@H](C)c2cccc(C(F)(F)CO)c2)c2cc(C3=CCOCC3)c(=O)n(C)c2n1` [Example 3, (R)-4-((1-(3-(1,1-difluoro-2-hydroxyethyl)phenyl)ethyl)amino)-6-(3,6-dihydro-2H-pyran-4-yl)-2,8-dimethylpyrido[2,3-d]pyrimidin-7(8H)-one], the IC50 in test [1] (setting [3]) was determined as 34.9 nM. In addition, the Kd in test [2] (setting [4]) is 21.8 nM.

On to `C[C@@H](Nc1ncnc2c1cc(C1(O)CCS(=O)(=O)CC1)c(=O)n2C)c1cccc(C(F)F)c1F` [Example 28, 4-(4-{[(1R)-1-[3-(difluoromethyl)-2-fluorophenyl]-ethyl]amino}-8-methyl-7-oxo-7H,8H-pyrido[2,3-d]pyrimidin-6-yl)-4-hydroxy-1λ^6-thiane-1,1-dione], for which the concentration for half-maximal inhibition (IC50) in test [1] (setting [3]) was 20.6 nM. Besides, the Kd in test [2] (setting [4]) came to 45.1 nM.

As to `Cc1nc(N[C@H](C)c2cc(N)cc(C(F)(F)F)c2)c2cc(C3=CCOCC3)c(=O)n(C)c2n1` [Example 7, (R)-4-((1-(3-amino-5-(trifluoromethyl)phenyl)ethyl)amino)-6-(3,6-dihydro-2H-pyran-4-yl)-2,8-dimethylpyrido[2,3-d]pyrimidin-7(8H)-one], in test [1] (setting [3]), the IC50 came out at 155 nM. In addition, the Kd in test [2] (setting [4]) is 117 nM.

As for `C[C@@H](Nc1ncnc2c1cc(C1CC[S+]([O-])CC1)c(=O)n2C)c1cccc(C(F)F)c1F` (stereo partly drawn) [Example 25, (R)-4-((1-(3-(difluoromethyl)-2-fluorophenyl)ethyl)amino)-8-methyl-6-(1-oxidotetrahydro-2H-thiopyran-4-yl)pyrido[2,3-d]pyrimidin-7(8H)-one], in test [1] (setting [3]), the IC50 was 15.9 nM. In addition, the Kd in test [2] (setting [4]) stood at 19.4 nM.

As for `Cc1nc(N[C@H](C)c2cccc(C(F)F)c2F)c2cc(C(=O)N3CCOCC3)c(=O)n(C)c2n1` [Example 26, 4-{[(1R)-1-[3-(difluoromethyl)-2-fluorophenyl]ethyl]amino}-2,8-dimethyl-6-(morpholine-4-carbonyl)-7H,8H-pyrido[2,3-d]pyrimidin-7-one], in test [1] (setting [3]), the IC50 was found to be 70.2 nM. The Kd in test [2] (setting [4]) was determined as 115 nM.

Consider `C[C@@H](Nc1ncnc2c1cc(C1=CC[S+]([O-])CC1)c(=O)n2C)c1cccc(C(F)F)c1F` (stereo partly drawn) [Example 22, 4-(((R)-1-(3-(difluoromethyl)-2-fluorophenyl)ethyl)amino)-8-methyl-6-(1-oxido-3,6-dihydro-2H-thiopyran-4-yl)pyrido[2,3-d]pyrimidin-7(8H)-one], for which the IC50 in test [1] (setting [3]) came to 298 nM. Moreover, in test [2] (setting [4]), the Kd was 34.2 nM.
